In patent US20110053897A1 (IRM LLC, priority 2009, published 2011):
Read-outs that look alike come from different tables or passages of the source.

Target: T1, Syk kinase (Homo sapiens, UniProt P43405)
T1 construct: purchased
Assay: Syk kinase inhibition, Caliper LabChip off-chip mobility-shift kinase assay
Type: biochemical
Conditions: read-out: Syk Enzyme IC50
Procedure, shortened: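 Purified Syk pre-incubated 15 min with compound in 100 mM HEPES pH 7.5, 1 mM DTT, 10 mM MgCl2 or MnCl2, 0.002% Brij-35, then 1.5 μM fluorescein peptide and ATP at apparent KM added; 1–1.5 h at room temperature, 4% DMSO, EDTA stop. Microfluidic mobility-shift product/substrate conversion gave % inhibition; IC50 from 12-point series (10–0.00003 μM) by 4-parameter fit.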

IC50 (Caliper LabChip assay) [nM] | IC50 [nM] | Compound
12 | – | CC(C)(C)Nc1nc(Nc2cnccn2)cc2ccn(CCCO)c(=O)c12 [compound 1034]
25 | – | CC(C)n1ccc2cc(Nc3c[n+]([O-])ccn3)nc(N[C@H]3CC[C@@H](O)C3)c2c1=O [compound 1017]
138 | – | CC(C)(C)Nc1nc(Nc2cnccn2)cc2ccn(C3CS(=O)(=O)C3)c(=O)c12 [compound 1015]
– | 108 | Nc1ncc(-c2cc3c(F)c[nH]c(=O)c3c(Nc3ccc(N4CCOCC4)cc3)n2)cn1 [compound 428]
413 | – | CCn1ccc2cc(Nc3cc(C)ccn3)nc(NCC(O)C(F)(F)F)c2c1=O (centres unmarked) [compound 778]
– | 419 | CCN1CCN(CCc2ccc(Nc3nc(-c4ccc(C)nc4)cc4c(F)c[nH]c(=O)c34)cc2)CC1 [compound 443]
6 | – | CC(C)(C)Nc1nc(Nc2c[n+]([O-])ccn2)cc2ccn(C[C@@H](O)CO)c(=O)c12 [compound 675]
– | 147 | CCn1ccc2cc(Nc3cnccn3)nc(NC(C)(C)C)c2c1=O [compound 465]
3 | – | C[C@@H](O)c1ccnc(Nc2cc3ccn(CCO)c(=O)c3c(NC(C)(C)C)n2)c1 [compound 713]
53 | – | CC(N)c1ccnc(Nc2cc3ccn(CCO)c(=O)c3c(NC(C)(C)C)n2)c1 (centres unmarked) [compound 712, 6-(4-(1-aminoethyl)pyridin-2-ylamino)-8-(tert-butylamino)-2-(2-hydroxyethyl)-2,7-naphthyridin-1(2H)-one]
– | 16 | Cn1ccc2cc(Nc3cnccn3)nc(NC3CCC3)c2c1=O [compound 460]
– | 24 | Cn1ccc2cc(Nc3cnccn3)nc(N[C@H]3CC[C@@H](O)CC3)c2c1=O [compound 330]
– | 107 | CCN1CCN(CCc2ccc(Nc3nc(-c4cnn(C)c4)cc4c(F)c[nH]c(=O)c34)cc2)CC1 [compound 442]
– | 139 | Cn1ccc2cc(Nc3cnccn3)nc(NCC3CCCO3)c2c1=O (centres unmarked) [compound 475]
– | 41 | COc1cncc(-c2cc3cc[nH]c(=O)c3c(Nc3ccc(C4CCN(CC(=O)N5CCCC5)CC4)c(C)c3)n2)n1 [compound 156]
94 | – | CC(C)(C)Nc1nc(Nc2cc(C(C)(C)O)c(F)cn2)cc2ccn(CC(N)=O)c(=O)c12 [compound 877]
34 | – | N#CCn1ccc2cc(-c3cnc(N)nc3)nc(NC3CCOCC3)c2c1=O [compound 742]
120 | – | CC(C)(C)Nc1nc(Nc2cnccn2)cc2ccn(C[C@@H](O)c3ccccc3)c(=O)c12 [compound 676]
– | 377 | CC(C)Nc1nc(Nc2ccc(C#N)cn2)cc2cc[nH]c(=O)c12 [compound 570]
– | 89 | Cc1ccc(-c2cc3cc[nH]c(=O)c3c(Nc3ccc(C4CCN(C5CC5)CC4)c(C)c3)n2)cn1 [compound 219]
– | 286 | COCCCNc1nc(Nc2ccccn2)cc2cc[nH]c(=O)c12 [compound 190]
– | 11 | CCN1CCN(c2n[nH]c3cc(Nc4nc(-c5cncc(OC)n5)cc5cc[nH]c(=O)c45)ccc23)CC1 [compound 209]
131 | – | CCn1ccc2cc(Nc3cc(C)ccn3)nc(Nc3ccc(C(=O)N4CCC(O)CC4)cc3)c2c1=O [compound 835]
793 | – | COc1ccc(Nc2cc3ccn(CCO)c(=O)c3c(NC(C)(C)C)n2)nc1 [Compound No. 606, 8-(tert-butylamino)-2-(2-hydroxyethyl)-6-(5-methoxypyridin-2-ylamino)-2,7-naphthyridin-1(2H)-one]
– | 249 | Cc1cc(Nc2nc(Nc3cc(C(=O)O)ccn3)cc3cc[nH]c(=O)c23)ccc1C1CCN(C2CC2)CC1 [compound 261]

IC50 (Caliper LabChip assay) [nM] | IC50 [nM] | Compound
52 | – | CC1(Cn2ccc3cc(Nc4cnccn4)nc(NC4CC(F)(F)C4)c3c2=O)COC1 [compound 765]
– | 21 | Cc1ccnc(Nc2cc3cc[nH]c(=O)c3c(NC(C)(C)CO)n2)c1 [compound 488]
– | 5 | CCC(C(=O)O)N1CCC(c2ccc(Nc3nc(-c4cncc(OC)n4)cc4cc[nH]c(=O)c34)cc2C)CC1 (centres unmarked) [compound 119]
– | 83 | Cc1ccnc(Nc2cc3cc[nH]c(=O)c3c(N[C@H]3CCOC3)n2)c1 [compound 302]
81 | – | CCn1ccc2cc(Nc3cc(C)ccn3)nc(NC(C)(CO)CO)c2c1=O [compound 808]
– | 81 | COC(=O)CCN1CCC(c2ccc(Nc3nc(-c4cncc(OC)n4)cc4cc[nH]c(=O)c34)cc2C)CC1 [compound 160]
– | 271 | CC[C@H](C)Nc1nc(Nc2ccccn2)cc2cc[nH]c(=O)c12 [compound 290]
– | 34 | COc1ncc(-c2cc3cc[nH]c(=O)c3c(Nc3ccc(C4CN(C)C4)cc3)n2)cn1 [compound 139]
– | 206 | CC(C)Nc1nc(Nc2ccc(C(N)=O)cn2)cc2cc[nH]c(=O)c12 [compound 540]
– | 86 | CN1CCCN(CCc2ccc(Nc3nc(-c4cncnc4)cc4cc[nH]c(=O)c34)cc2)CC1 [compound 435]
– | 120 | Cn1ccc2cc(Nc3cnccn3)nc(NC(C)(C)C)c2c1=O [compound 466]
– | 743 | C=C(C)c1cc2cc[nH]c(=O)c2c(Nc2ccc(C3CCN(C4CC4)CC3)c(C)c2)n1 [compound 229]
301 | – | CC(C)(C)Nc1nc(Nc2cnccn2)cc2ccn(Cc3ccncc3)c(=O)c12 [compound 1019]
2 | – | CC(CO)c1ccnc(Nc2cc3ccn(CCO)c(=O)c3c(NC(C)(C)C)n2)c1 (centres unmarked) [compound 864]
– | 89 | CCN1CCN(Cc2n[nH]c3cc(Nc4nc(-c5cncc(C(=O)N6CCOCC6)c5)cc5cc[nH]c(=O)c45)ccc23)CC1 [compound 207]
– | 6 | COc1cncc(-c2cc3cc[nH]c(=O)c3c(Nc3ccc(C4CNC4)cc3)n2)n1 [compound 145]
– | 42 | Cc1ccnc(Nc2cc3cc[nH]c(=O)c3c(NC3CCOC3)n2)c1 (centres unmarked) [compound 273]
– | 44 | COCCOCC(=O)N1CCC(c2ccc(Nc3nc(-c4cncc(OC)n4)cc4cc[nH]c(=O)c34)cc2)CC1 [compound 27]
– | 71 | CCn1ccc2cc(Nc3ncccn3)nc(NC[C@H]3CC[C@H](O)C3)c2c1=O [compound 411]
– | 129 | Cc1ccnc(Nc2cc3ccn(C)c(=O)c3c(NC(C)(C)C)n2)c1 [compound 506]
22 | – | O=c1c2c(NCC(F)(F)F)nc(Nc3cnccn3)cc2ccn1CCO [compound 825]
862 | – | CCn1ccc2cc(Nc3cc(C)ccn3)nc(NCCC(F)(F)F)c2c1=O [compound 780]
– | 36 | Cn1ccc2cc(Nc3cc(Cl)ccn3)nc(N[C@H]3CC[C@@H](O)CC3)c2c1=O [compound 379]
– | 74 | COCC(C)Nc1nc(Nc2cc(C)ccn2)cc2cc[nH]c(=O)c12 (centres unmarked) [compound 266]
– | 29 | COCCN1CCN(c2n[nH]c3cc(Nc4nc(-c5cncc(OC)n5)cc5cc[nH]c(=O)c45)ccc23)CC1 [compound 217]

IC50 (Caliper LabChip assay) [nM] | IC50 [nM] | Compound
– | 54 | CCn1ccc2cc(Nc3cc(C)ccn3)nc(NC(C)(C)CO)c2c1=O [compound 492]
– | 20 | COc1nc(-c2cc3cc[nH]c(=O)c3c(Nc3ccc(C4CCN(CCC#N)CC4)cc3)n2)cnc1N [compound 154]
– | 2060 | CCOCCOc1ccc(Nc2nc(Nc3cnccn3)cc3ccn(C)c(=O)c23)cc1 [compound 340]
370 | – | O=c1c2c(NC3CCS(=O)(=O)C3)nc(Nc3cnccn3)cc2ccn1CCO (centres unmarked) [compound 975]
– | 550 | Cc1ccnc(Nc2cc3cc[nH]c(=O)c3c(NC3CCN(Cc4ccccc4)C3)n2)c1 (centres unmarked) [compound 553]
– | 97 | [2H]C([2H])([2H])n1ccc2cc(Nc3cnccn3)nc(NC(C)(C)C)c2c1=O [compound 469]
– | 32 | Cc1ccnc(Nc2cc3cc[nH]c(=O)c3c(Nc3ccc(C4CCN(C5CC5)CC4)c(C)c3)n2)c1 [compound 252]
– | 204 | COCC(Cl)C(=O)N1CCC(c2ccc(Nc3nc(-c4cncc(OC)n4)cc4cc[nH]c(=O)c34)cc2C)CC1 (centres unmarked) [compound 90]
– | 95.6 | CCn1ccc2cc(Nc3cnccn3)nc(NC[C@H]3CC[C@@](C)(O)C3)c2c1=O [compound 417]
17 | – | CC(C)(C)Nc1nc(Nc2cnccn2)cc2ccn(CC(N)=O)c(=O)c12 [compound 662]
– | 100 | O=c1[nH]ccc2cc(Nc3cnccn3)nc(Nc3ccc(N4CCOCC4)cc3)c12 [compound 461]
9 | – | CC(C)(C)Nc1nc(Nc2cc(-c3ncccn3)ccn2)cc2ccn(CCO)c(=O)c12 [compound 878]
6 | – | CC(C)(C)Nc1nc(Nc2cnccn2)cc2ccn(C[C@H](O)CO)c(=O)c12 [compound 669]
– | 197 | Cc1cc(Nc2nc(-c3cnn(CC(C)C)c3)cc3cc[nH]c(=O)c23)ccc1C1CCN(C2CC2)CC1 [compound 211]
– | 400 | O=C1CCC(c2ccc(Nc3nc(-c4cncnc4)cc4cc[nH]c(=O)c34)cc2)CC1 [compound 91]
– | 295 | CCOC(=O)CCc1cc2cc[nH]c(=O)c2c(Nc2ccc(N3CCOCC3)cc2)n1 [compound 245]
– | 54 | CC(C)Nc1nc(Nc2cc(Cl)ccn2)cc2cc[nH]c(=O)c12 [compound 484]
– | 86 | COc1cncc(-c2cc3cc[nH]c(=O)c3c(Nc3ccc(CCN4CCN(C(C)C)CC4)cc3)n2)n1 [compound 21]
287 | – | CCn1ccc2cc(-c3cnc(N)nc3)nc(N)c2c1=O [compound 743, 8-amino-6-(2-aminopyrimidin-5-yl)-2-ethyl-2,7-naphthyridin-1(2H)-one]
– | 393 | Cc1ccnc(Nc2cc3ccn(C)c(=O)c3c(Nc3ccc(C4CCOCC4)nc3)n2)c1 [compound 372]
– | 302 | CC[C@H](CO)Nc1nc(Nc2cnccn2)cc2ccn(CC)c(=O)c12 [compound 457]
– | 23 | CCNC(=O)C(C)N1CCC(c2ccc(Nc3nc(-c4cncc(OC)n4)cc4cc[nH]c(=O)c34)cc2C)CC1 (centres unmarked) [compound 120]
– | 20 | Cc1ccnc(Nc2cc3cc[nH]c(=O)c3c(N[C@H](C)CO)n2)c1 [compound 295]
– | 67 | COCCN1CCN(c2n[nH]c3cc(Nc4nc(-c5ccc(C)nc5)cc5cc[nH]c(=O)c45)ccc23)CC1 [compound 215]
